Where only a bound is given, the exact number is not on record here.

For this assay, the target named is T1, human DGAT2 (Homo sapiens, UniProt Q96PD7).
T1 construct: made in house; host or cells: Sf-9 insect cells (baculovirus), membrane fraction
T1 sequence (Q96PD7 1-388): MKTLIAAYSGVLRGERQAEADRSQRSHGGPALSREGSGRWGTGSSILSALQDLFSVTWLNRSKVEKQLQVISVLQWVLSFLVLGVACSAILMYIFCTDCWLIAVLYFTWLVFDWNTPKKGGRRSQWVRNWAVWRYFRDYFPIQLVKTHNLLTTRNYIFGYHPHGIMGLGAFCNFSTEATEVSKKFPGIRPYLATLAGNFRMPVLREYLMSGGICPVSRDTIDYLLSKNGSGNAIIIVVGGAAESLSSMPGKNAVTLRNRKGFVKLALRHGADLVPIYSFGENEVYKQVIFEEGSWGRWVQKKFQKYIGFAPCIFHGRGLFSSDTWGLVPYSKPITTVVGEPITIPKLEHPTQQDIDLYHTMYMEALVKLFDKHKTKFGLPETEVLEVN
Briefly: DGAT2 Enzymatic Activity Assay. The format is biochemical. The following applies: membrane prep of Sf-9 insect cells expressing hDGAT2; 13C18-triolein product by LC/MS/MS; 25 μM diolein, 5 μM 13C oleoyl-CoA. How it is done: Sf-9 insect cells were maintained in Grace's insect cell culture medium with 10% heated-inactivated fetal bovine serum, 1% Pluronic F-68 and 0.14 μg/ml Kanamycine sulfate at 27° C. in a shaker incubator. After infection with untagged baculovirus expressing human DGAT2 (hDGAT2) at multiplicity of infection (MOI) 3 for 48 hours, cells were harvested. Cell pellets were suspended in buffer containing 10 mM Tris-HCl pH 7.5, 1 mM EDTA, 250 mM sucrose and Complete Protease Inhibitor Cocktail (Sigma Aldrich), and sonicated on ice. Cell debris were removed by centrifugation at 2000×g for 15 minutes. Membrane fractions were isolated by ultracentrifugation (100,000×g), resuspended in the same buffer, and frozen (−80° C.) for later use. The protein concentration was determined with the Pierce™ BCA Protein Assay Kit (Thermo Fisher Scientific).
LC/MS/MS analyses were performed using Thermal Fisher's LX4-TSQ Vantage system. This system consists of an Agilent binary high-performance liquid chromatography (HPLC) pump and a TSQ Vantage triple quadrupole MS/MS instrument. For each sample, 2 μL samples from the top organic layer of in-plate liquid-liquid extraction were injected onto a Thermo Betabasic C4 column (2.1 mm×20 mm, 5 μm particle size). The samples were then eluted using the following conditions; mobile phase: Isopropanol:acetonitrile/10 mM ammonium formate=50/35/15 (v/v/v), flow rate: 0.8 mL/min, temperature: 25° C. Data was acquired in positive mode using a heated electrospray ionization (HESI) interface. […] The peak area was integrated by Xcalibur Quan software. The ratio between the ^13C18triolein generated in the reaction and spiked in internal standard ^13C21-triolein was used to generate percentage inhibition and IC50 values. Compound percentage inhibition was calculated by the following formula: Inhibition %=1−[(compound response−low control)/(high control−low control)]×100%.
DGAT2 activity was determined by measuring the amount of enzymatic product ^13C18-triolein (^13C-1,2,3-Tri(cis-9-octadecenoyl)glycerol) using the membrane prep mentioned above. The assay was carried out in ABgene 384-well assay plates in a final volume of 25 μL at rt.
For `CC1(NC(=O)c2nn3ccc(Oc4ncccc4OCC(F)(F)F)cc3c2CO)CCS(=O)(=O)CC1` [Example 50, 3-(Hydroxymethyl)-N-(4-methyl-1,1-dioxidotetrahydro-2H-thiopyran-4-yl)-5-((3-(2,2,2-trifluoroethoxy)pyridin-2-yl)oxy)pyrazolo[1,5-a]pyridine-2-carboxamide], the 50% inhibitory concentration (IC50) came out at 10 nM.
The value for `CC1(NC(=O)c2cc3cc(Oc4ncc(C(O)C5CC5)cc4OCC(F)(F)F)ccn3n2)CCS(=O)(=O)CC1` (single isomer, unassigned) [Example 43a, 5-((5-(Cyclopropyl(hydroxy)methyl)-3-(2,2,2-trifluoroethoxy)pyridin-2-yl)oxy)-N-(4-methyl-1,1-dioxidotetrahydro-2H-thiopyran-4-yl)pyrazolo[1,5-a]pyridine-2-carboxamide] was 228 nM; that for `C[C@@]1(NC(=O)c2cc3cc(Oc4nccnc4OCC(F)F)ccn3n2)CCS(=O)(=O)C1` [Example 8, (R)-5-((3-(2,2-Difluoroethoxy)pyrazin-2-yl)oxy)-N-(3-methyl-1,1-dioxidotetrahydrothiophen-3-yl)pyrazolo[1,5-a]pyridine-2-carboxamide] was 211 nM; that for `CC1(NC(=O)c2cc3cc(Oc4ncccc4OCC(F)(F)F)ccn3n2)CS(=O)(=O)C1` [Example 5, N-(3-Methyl-1,1-dioxidothietan-3-yl)-5-((3-(2,2,2-trifluoroethoxy)pyridin-2-yl)oxy)pyrazolo[1,5-a]pyridine-2-carboxamide] was 149 nM.
The value for `CC1(NC(=O)c2nn3ccc(Oc4ncccc4OCC(F)(F)F)cc3c2C(F)F)CCS(=O)(=O)CC1` [Example 49, 3-(Difluoromethyl)-N-(4-methyl-1,1-dioxidotetrahydro-2H-thiopyran-4-yl)-5-((3-(2,2,2-trifluoroethoxy)pyridin-2-yl)oxy)pyrazolo[1,5-a]pyridine-2-carboxamide] was 973 nM; that for `CC1(NC(=O)c2cc3cc(Oc4nccnc4OCC(F)(F)F)ccn3n2)CCS(=O)(=O)CC1` [Example 13, N-(4-Methyl-1,1-dioxidotetrahydro-2H-thiopyran-4-yl)-5-((3-(2,2,2-trifluoroethoxy)pyrazin-2-yl)oxy)pyrazolo[1,5-a]pyridine-2-carboxamide] was 17 nM; that for `CC1(NC(=O)c2nn3ccc(Oc4ncc(F)cc4OCC(F)(F)F)c(Cl)c3c2Cl)CCS(=O)(=O)CC1` [Example 33, 3,4-Dichloro-5-((5-fluoro-3-(2,2,2-trifluoroethoxy)pyridin-2-yl)oxy)-N-(4-methyl-1,1-dioxidotetrahydro-2H-thiopyran-4-yl)pyrazolo[1,5-a]pyridine-2-carboxamide] was 8.8 nM.
With `O=C(N[C@H]1CCOC1)c1cc2cc(Oc3ncccc3OCC(F)(F)F)ccn2n1` [Example 6, (S)-N-(Tetrahydrofuran-3-yl)-5-((3-(2,2,2-trifluoroethoxy)pyridin-2-yl)oxy)pyrazolo[1,5-a]pyridine-2-carboxamide] the figure was more than 9990 nM; with `CC1(NC(=O)c2cc3cc(Oc4ncc(C(O)C(F)(F)F)cc4OCC(F)(F)F)ccn3n2)CS(=O)(=O)C1` (single isomer, unassigned) [Example 45b, N-(3-Methyl-1,1-dioxidothietan-3-yl)-5-((5-(2,2,2-trifluoro-1-hydroxyethyl)-3-(2,2,2-trifluoroethoxy)pyridin-2-yl)oxy)pyrazolo[1,5-a]pyridine-2-carboxamide], 1560 nM; with `CC1(NC(=O)c2cc3cc(Oc4ncc(F)cc4OC4CC4)ccn3n2)CS(=O)(=O)C1` [Example 12, 5-((3-Cyclopropoxy-5-fluoropyridin-2-yl)oxy)-N-(3-methyl-1,1-dioxidothietan-3-yl)pyrazolo[1,5-a]pyridine-2-carboxamide], 1800 nM.
Take `CCOc1cccc(COc2ccn3nc(C(=O)NC4(C)CCS(=O)(=O)CC4)cc3n2)n1` [Example 69, 5-((6-Ethoxypyridin-2-yl)methoxy)-N-(4-methyl-1,1-dioxidotetrahydro-2H-thiopyran-4-yl)pyrazolo[1,5-a]pyrimidine-2-carboxamide]: the half-inhibitory concentration (IC50) came out at 264 nM.

Values taken from patent publication US20260193249A1, “PREPARATION OF PYRAZOLOPYRIDINE AND TRIAZOLOPYRIDINE DERIVATIVES AS NOVEL DIACYLGLYCERIDE O-ACYLTRANSFERASE 2 INHIBITORS” (Merck Sharp & Dohme LLC, priority 2022, published 2026).
